Measured values as given in US11613522B2, “Herbicidally active 3-phenylisoxazoline-5-carboxamides of tetrahydro- and dihydrofurancarboxamides” (BAYER AKTIENGESELLSCHAFT, priority 2017, dated 2023).

Assays:
Assay type in all cases: in vivo
Alopecurus myosuroides [1] = assay: Pre-emergence herbicidal activity against ALOMY; conditions: Alopecurus myosuroides, 504 h, dosage 80 g/ha, scored visually after about 3 weeks vs untreated controls
How it was run: (§1)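 Visual damage score, in percent relative to untreated controls, taken about 3 weeks after soil-surface application. Compounds were applied as WP or EC in water with 0.5% additive at 600 l/ha onto soil covering sown seeds, then kept in a greenhouse.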

Avena fatua [2] = assay: Pre-emergence herbicidal activity against AVEFA; conditions: Avena fatua, 504 h, dosage 80 g/ha, scored visually after about 3 weeks vs untreated controls, read-out: Pre-emergence herbicidal activity in % against AVEVA (AVEFA)
How it was run: as §1

Echinochloa crus-galli [3] = assay: Pre-emergence herbicidal activity against ECHCG; conditions: Echinochloa crus-galli, 504 h, dosage 80 g/ha, scored visually after about 3 weeks vs untreated controls
From the text: (§2) 1. Pre-emergence herbicidal action against harmful plants and crop plant compatibility Seeds of monocotyledonous and dicotyledonous weed plants and crop plants are placed in plastic or wood fiber pots and covered with soil. The compounds of the invention, formulated in the form of wettable powders (WP) or as emulsion concentrates (EC), are then applied onto the surface of the covering soil as aqueous suspension or emulsion with addition of 0.5% additive at a water application rate of 600 l/ha (converted). After the treatment, the pots are placed in a greenhouse and kept under good growth conditions for the trial plants. After about 3 weeks, the effect of the preparations is scored visually in comparison with untreated controls as percentages. For example, 100% activity=the plants have died, 0% activity=like control plants. [table]

Lolium rigidum [4] = assay: Pre-emergence herbicidal activity against LOLRI; conditions: Lolium rigidum, 504 h, dosage 80 g/ha, scored visually after about 3 weeks vs untreated controls
How it was run: as §1

Setaria viridis = assay: Pre-emergence herbicidal activity against SETVI; conditions: Setaria viridis, 504 h, dosage 80 g/ha, scored visually after about 3 weeks vs untreated controls
How it was run: as §1

Amaranthus retroflexus [5] = assay: Pre-emergence herbicidal activity against AMARE; conditions: Amaranthus retroflexus, 504 h, dosage 80 g/ha, scored visually after about 3 weeks vs untreated controls
How it was run: as §1

Pharbitis purpurea [6] = assay: Pre-emergence herbicidal activity against PHBPU; conditions: dosage 80 g/ha, scored visually after about 3 weeks vs untreated controls
From the text: as §2

Polygonum convolvulus [7] = assay: Pre-emergence herbicidal activity against POLCO; conditions: Fallopia convolvulus, 504 h, dosage 80 g/ha, scored visually after about 3 weeks vs untreated controls
How it was run: as §1

Stellaria media [8] = assay: Pre-emergence herbicidal activity against STEME; conditions: Stellaria media, 504 h, dosage 80 g/ha, scored visually after about 3 weeks vs untreated controls
How it was run: as §1

Viola tricolor [9] = assay: Pre-emergence herbicidal activity against VIOTR; conditions: Viola tricolor, 504 h, dosage 80 g/ha, scored visually after about 3 weeks vs untreated controls
How it was run: as §1

Veronica persica [10] = assay: Pre-emergence herbicidal activity against VERPE; conditions: Veronica persica, 504 h, dosage 80 g/ha
How it was run: as §1

Hordeum murinum [11] = assay: Pre-emergence herbicidal activity against HORMU; conditions: Hordeum murinum, 504 h, dosage 80 g/ha
How it was run: as §1

Alopecurus myosuroides [12] = assay: Post-emergence herbicidal activity against ALOMY; conditions: Alopecurus myosuroides, 504 h, dosage 320 g/ha, rated visually after about 3 weeks
How it was run: (§3)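 Visual rating of damage, on a scale where 100% means the plants died and 0% means they look like untreated controls, was made about 3 weeks after treatment. Plants grown in sandy loam pots in the greenhouse were sprayed post-emergence at the one-leaf stage.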

Avena fatua [13] = assay: Post-emergence herbicidal activity against AVEFA; conditions: Avena fatua, 504 h, dosage 320 g/ha, rated visually after about 3 weeks
How it was run: as §3

Echinochloa crus-galli [14] = assay: Post-emergence herbicidal activity against ECHCG; conditions: Echinochloa crus-galli, 504 h, dosage 320 g/ha, rated visually after about 3 weeks
How it was run: as §3

Lolium rigidum [15] = assay: Post-emergence herbicidal activity against LOLRI; conditions: Lolium rigidum, 504 h, dosage 320 g/ha, rated visually after about 3 weeks
How it was run: as §3

Abutilon theophrasti = assay: Post-emergence herbicidal activity against ABUTH; conditions: Abutilon theophrasti, 504 h, dosage 320 g/ha, rated visually after about 3 weeks
How it was run: as §3

Amaranthus retroflexus [16] = assay: Post-emergence herbicidal activity against AMARE; conditions: Amaranthus retroflexus, 504 h, dosage 320 g/ha, rated visually after about 3 weeks
How it was run: as §3

Pharbitis purpurea [17] = assay: Post-emergence herbicidal activity against PHBPU; conditions: Ipomoea purpurea, 504 h, dosage 320 g/ha, rated visually after about 3 weeks
How it was run: as §3

Polygonum convolvulus [18] = assay: Post-emergence herbicidal activity against POLCO; conditions: Fallopia convolvulus, 504 h, dosage 320 g/ha, rated visually after about 3 weeks
How it was run: as §3

Stellaria media [19] = assay: Post-emergence herbicidal activity against STEME; conditions: Stellaria media, 504 h, dosage 320 g/ha, rated visually after about 3 weeks
How it was run: as §3

Viola tricolor [20] = assay: Post-emergence herbicidal activity against VIOTR; conditions: Viola tricolor, 504 h, dosage 320 g/ha, rated visually after about 3 weeks
How it was run: as §3

Veronica persica [21] = assay: Post-emergence herbicidal activity against VERPE; conditions: Veronica persica, 504 h, dosage 320 g/ha, rated visually after about 3 weeks
How it was run: as §3

Hordeum murinum [22] = assay: Post-emergence herbicidal activity against HORMU; conditions: Hordeum murinum, 504 h, dosage 320 g/ha, rated visually after about 3 weeks
How it was run: as §3

[23] = Pre-emergence herbicidal action against harmful plants (summary of the tables); conditions: 504 h, application rate of 0.08 kg of active substance or less per hectare, read-out: herbicidal action, pre-emergence treatment (very good activity)
From the text: as §2, with “plants.” for “plants. [table]”
As shown by the results, compounds according to the invention such as, for example, the compounds No. I-02 and other compounds from the tables (I-05, I-10, I-11, I-12, I-13, I-14, I-15, I-16, I-17, I-18, I-19, I-20, I-21, I-22, I-23, I-24, I-25, I-26, I-27, I-28, I-29) have, when used for pre-emergence treatment, very good activity (80% to 100% herbicidal action) against harmful plants such as Abutilon theophrasti, Alopecurus myosuroides, Amaranthus retroflexus, Avena fatua, Cyperus esculentus, Echinochloa crus-galli, Hordeum murinum, Lolium rigidum, Pharbitis purpurea, Polygonum convolvulus, Setaria viridis, Stellaria media, Veronica persica and Viola tricolor at an application rate of 0.08 kg of active substance or less per hectare.

Row | Compound | pest or weed control at 80 g/ha (Alopecurus myosuroides [1]) [%] | pest or weed control at 80 g/ha (Avena fatua [2]) [%] | pest or weed control at 80 g/ha (Echinochloa crus-galli [3]) [%] | pest or weed control at 80 g/ha (Lolium rigidum [4]) [%] | pest or weed control at 80 g/ha (Setaria viridis) [%] | pest or weed control at 80 g/ha (Amaranthus retroflexus [5]) [%] | Pre-emergence herbicidal activity in % against PHBPU (Pharbitis purpurea [6]) [%] | pest or weed control at 80 g/ha (Polygonum convolvulus [7]) [%] | pest or weed control at 80 g/ha (Stellaria media [8]) [%] | pest or weed control at 80 g/ha (Viola tricolor [9]) [%] | pest or weed control at 80 g/ha (Veronica persica [10]) [%] | pest or weed control at 80 g/ha (Hordeum murinum [11]) [%] | pest or weed control at 320 g/ha (Alopecurus myosuroides [12]) [%] | pest or weed control at 320 g/ha (Avena fatua [13]) [%] | pest or weed control at 320 g/ha (Echinochloa crus-galli [14]) [%] | pest or weed control at 320 g/ha (Lolium rigidum [15]) [%] | pest or weed control at 320 g/ha (Abutilon theophrasti) [%] | pest or weed control at 320 g/ha (Amaranthus retroflexus [16]) [%] | pest or weed control at 320 g/ha (Pharbitis purpurea [17]) [%] | pest or weed control at 320 g/ha (Polygonum convolvulus [18]) [%] | also measured
1 | C=C[C@]1(C(=O)N[C@@H]2CO[C@H](C(=O)NOCC)C2)CC(c2cc(F)cc(F)c2)=NO1 (mixture of isomers) [Example I-12, (5S)-3-(3,5-difluorophenyl)-N-[cis-5-(ethoxycarbamoyl)tetrahydrofuran-3-yl]-5-vinyl-4H-isoxazole-5-carboxamide] | 100 | 100 | 100 | 100 | 100 | 100 | 90 | 100 | 100 | 100 | 100 | 100 | 90 | 100 | 90 | 90 | 80 | 80 | 80 | 80 | pest or weed control at 320 g/ha (Stellaria media [19]): 90%; pest or weed control at 320 g/ha (Viola tricolor [20]): 80%; pest or weed control at 320 g/ha (Veronica persica [21]): 80%; pest or weed control at 320 g/ha (Hordeum murinum [22]): 90%; pest or weed control at 80 g/ha [23]: 80 to 100%
2 | C=C[C@]1(C(=O)N[C@@H]2CO[C@H](C(=O)NS(=O)(=O)C(F)(F)F)C2)CC(c2cc(F)cc(F)c2)=NO1 (mixture of isomers) [Example I-14, (5S)-3-(3,5-difluorophenyl)-N-[cis-5-(trifluoromethylsulfonylcarbamoyl)tetrahydrofuran-3-yl]-5-vinyl-4H-isoxazole-5-carboxamide] | 100 | 90 | 100 | 100 | 100 | 100 | 90 | 100 | 90 | 100 | 90 | 90 | 90 | 80 | 80 | 90 | 90 | 80 | 80 | 80 | pest or weed control at 320 g/ha (Stellaria media [19]): 90%; pest or weed control at 320 g/ha (Viola tricolor [20]): 100%; pest or weed control at 320 g/ha (Veronica persica [21]): 90%; pest or weed control at 320 g/ha (Hordeum murinum [22]): 80%; pest or weed control at 80 g/ha [23]: 80 to 100%
